Source: patent US20220295713A1, “PLANT ACTIVATOR AND A METHOD OF MANUFACTURING THE SAME” (IBIDEN CO., LTD., priority 2016, published 2022)

How the values were obtained:
[1] = system: bacterial soft rot causing bacteria (Erwinia carotovora subsp. Carotovora); test: Bacterial soft rot in Arabidopsis thaliana after root treatment by watering; assay type: in vivo; details: comparative agents used instead of the plant activator, roots treated by watering, inoculated 24 hours after treatment
Experimental: The roots of Arabidopsis thaliana grown in the soil were treated by applying the 10 times, 100 times or 500 times diluted solution of the plant activator for test using the watering. 24 hours after the treatment, bacterial soft rot causing bacteria (Erwinia carotovora subsp. Carotovora) was inoculated on the leaves and stems above the ground. The plants were then grown at 23±2° C. in a high humidity environment for 3 days, and the disease symptoms at the pathogenic bacteria inoculated part had been evaluated up to one week after. The disease prevention effect was determined according to the following criteria.
⊚: the ratio of the area of leaves with no disease symptoms out of total area is 1.60 times or greater than the ratio observed in untreated leaves. ∘: the ratio of the area of leaves with no disease symptoms out of total area is 1.40 to 1.59 times than the ratio observed in untreated leaves. Δ: the ratio of the area of leaves with no disease symptoms out of total area is 1.20 to 1.39 times than the ratio observed in untreated leaves. X: the ratio of the area of leaves with no disease symptoms out of total area is 1.20 times less than the ratio observed in untreated leaves.
The roots of Arabidopsis thaliana were treated similar to Example 2 except that the water, peroxylipid, probenazole, isotianil, acibenzolar-S-methyl (ASM), 3′-chloro-4,4′-dimethyl-1,2,3-thiadiazole-5-carboxianilide (tiadinil), ketol fatty acid solution 1, or ketol fatty acid solution 2 was used instead of the plant activator for test.

bacterial wilt disease = test: Bacterial wilt disease in tomatoes growing in farm field; assay type: in vivo, Tomato (cultivar "Reika"); details: plant activator 50 times diluted, applied once every week
Experimental: (§1) Tomato (cultivar “Reika”) seedlings were planted with space of 60 cm between plants in the farm field where an outburst of bacterial wilt disease was observed, and the solution of the plant activator for test, which was 50 times diluted with water, was applied either by spraying (20 mL/plant) or watering it to soil (200 mL plant) once every week. The incidences of the bacterial wilt disease and phytotoxic damage were evaluated once every week for 4 weeks.
(§2) The leaves and stems of tomatoes were treated similar to Example 6 except that the Validamycin or no agent was used instead of the plant activator for test.

[2] = system: Tomato (cultivar "Reika"); assay type: in vivo; details: farm field, plant activator 50 times diluted, applied once every week
Experimental: as §1, §2

[3] = system: bacterial wilt disease bacteria; test: Bacterial wilt disease in tomatoes grown in pot; assay type: in vivo, tomatoes (cultivar "Momotaro"); details: 10 mL undiluted solution by watering, grown 7 days at 30° C. after inoculation
Experimental: (§3) The leaves and stems of tomatoes (cultivar “Momotaro”) grown in the pot for 3 weeks were treated by applying 10 mL of undiluted solution of the plant activator for test using the watering. The soil (about 100 g) in the pot was moistened thoroughly before the watering. The bacterial wilt disease bacteria were inoculated on the leaves and roots of tomatoes 1 hour and 24 hours after the watering. The plants were then grown at 30° C. in a high humidity environment for 7 days, and the incidences of the bacterial wilt disease and phytotoxic damage were evaluated.
(§4) The leaves and stems of tomatoes were treated similar to Example 5 except that the water and the fatty acid (linoleic acid) were used instead of the plant activator for test.

[4] = system: tomatoes (cultivar "Momotaro"); test: Phytotoxic damage in tomatoes grown in pot; assay type: in vivo; details: 10 mL undiluted solution by watering, 7 days
Experimental: as §3, §4

[5] = system: salicylic acid mediated signaling pathway; test: Real-time PCR gene expression in tomatoes, salicylic acid mediated signaling pathway; assay type: in vivo, tomatoes (cultivar "Momotaro"); details: index, untreated tomatoes = 1
Experimental: (§5) Further, the cDNA was synthesized from total RNA isolated from each tomato 24 hours and 72 hours after the inoculation, and the expression level of individual genes specific to the salicylic acid mediated signaling pathway and the jasmonate mediated signaling pathway was analyzed by real-time PCR. In this example, the amount of the gene expression is represented by an index, which is a calculated ratio given that the amount of gene expression in untreated tomatoes is 1.

[6] = system: jasmonate mediated signaling pathway; test: Real-time PCR gene expression in tomatoes, jasmonate mediated signaling pathway; assay type: in vivo, tomatoes (cultivar "Momotaro"); details: index, untreated tomatoes = 1
Experimental: as §5

powdery mildew = test: Naturally occurring powdery mildew in miniature roses in a planter; assay type: in vivo, miniature roses (cultivar Rouge); details: plant activator 100 times diluted or 0.02% mepanipyrim, sprayed once every week
Experimental: (§6) The solution of the plant activator for test, which was 100 times diluted with water, was applied to the leaves and stems of miniature roses (cultivar Rouge) planted in an outdoor planter right after the planting and once every week by spraying (about 50 mL/plant), and the naturally occurring damages due to disease (powdery mildew and black point disease) were evaluated on first week and fourth week.
(§7) The leaves and stems of miniature roses were treated similar to Example 7 except that 0.02% mepanipyrim or no agent was used instead of the plant activator for test.

black point disease = test: Naturally occurring black point disease in miniature roses in a planter; assay type: in vivo, miniature roses (cultivar Rouge); details: plant activator 100 times diluted or 0.02% mepanipyrim, sprayed once every week
Experimental: as §6, §7

CSC(=O)c1cccc2nnsc12 [ASM, acibenzolar-S-methyl]
disease prevention [1]: ⊚ (the ratio of the area of leaves with no disease symptoms out of total area is 1.60 times or greater than the ratio observed in untreated leaves.)

OCC1=C[C@H](N[C@H]2C[C@H](CO)[C@@H](O[C@@H]3O[C@H](CO)[C@@H](O)[C@H](O)[C@H]3O)[C@H](O)[C@H]2O)[C@H](O)[C@@H](O)[C@@H]1O [Validamycin]
incidences of disease Week 1 (bacterial wilt disease; Week 1): 0%
incidences of disease Week 2 (bacterial wilt disease; Week 2): 0%
incidences of disease Week 3 (bacterial wilt disease; Week 3): 0%
incidences of disease Week 4 (bacterial wilt disease; Week 4): 67%
incidences of phytotoxic damage Week 1 ([2]; Week 1): 100%
incidences of phytotoxic damage Week 2 ([2]; Week 2): 100%
incidences of phytotoxic damage Week 3 ([2]; Week 3): 100%
incidences of phytotoxic damage Week 4 ([2]; Week 4): 100%

CCCCC/C=C\C/C=C\CCCCCCCC(=O)O [fatty acid, linoleic acid]
incidences of disease [3]: 100%
incidences of phytotoxic damage [4]: 0%
amount of gene expression salicylic acid mediated signaling pathway 24 hours ([5]; 24 hours after inoculation): 0
amount of gene expression salicylic acid mediated signaling pathway 72 hours ([5]; 72 hours after inoculation): 0
amount of gene expression jasmonate mediated signaling pathway 24 hours ([6]; 24 hours after inoculation): 0.5
amount of gene expression jasmonate mediated signaling pathway 72 hours ([6]; 72 hours after inoculation): 1

N#Cc1ccccc1NC(=O)c1snc(Cl)c1Cl [isotianil]
disease prevention [1]: Δ (the ratio of the area of leaves with no disease symptoms out of total area is 1.20 to 1.39 times than the ratio observed in untreated leaves.)

CC#Cc1cc(C)nc(Nc2ccccc2)n1 [mepanipyrim]
incidences of disease powdery mildew Week 1 (powdery mildew; Week 1): 20.0%
incidences of disease powdery mildew Week 4 (powdery mildew; Week 4): 30.0%
incidences of disease black point disease Week 1 (black point disease; Week 1): 0%
incidences of disease black point disease Week 4 (black point disease; Week 4): 15%

C=CCOC1=NS(=O)(=O)c2ccccc21 [probenazole]
disease prevention [1]: Δ (the ratio of the area of leaves with no disease symptoms out of total area is 1.20 to 1.39 times than the ratio observed in untreated leaves.)

Cc1ccc(NC(=O)c2snnc2C)cc1Cl [tiadinil, 3′-chloro-4,4′-dimethyl-1,2,3-thiadiazole-5-carboxianilide]
disease prevention [1]: X (the ratio of the area of leaves with no disease symptoms out of total area is 1.20 times less than the ratio observed in untreated leaves.)
